US7560428B2, “Hair growth promoting oligopeptides” (Sumitomo Electric Industries, Ltd., priority 2004, dated 2009)
Entries after “also recorded” stand apart in the source; their conditions may differ. No end group written: not given here. *: point of attachment. KMUA = N-κ-maleimidoundecanoic acid-derived modifying group bound to a cysteine residue, O=C(O)CCCCCCCCCCN1C(=O)CC(*)C1=O; BMPA = N-β-maleimidopropionic acid-derived modifying group bound to a cysteine residue; Hexanoyl(6-maleimido) = O=C1C=CC(=O)N1CCCCCC(=O)*

Tested on: AHF (antigen recognized by the monoclonal antibody mAb27)
Test: Hair growth promoting activity in cultured mouse skin tissue: strength of the mAb27 reaction (AHF band) by Western blot
Type: cell-based, ICR baby mice
Conditions: test oligopeptide 20 μM, skin tissue cultured at 37° C. for 6 days, versus PBS control; FIGS. 4 and 5
Excerpt: The skin tissues of the upper jaw of ICR baby mice with an age of 12 days old were recovered under a stereoscopic microscope. The skin tissues were collected from both the left and right sides of the upper jaw, and the tissues were recovered from the total 5 mice. The skin sections recovered from the 5 mice were divided into the skin sections from the left side (used as a control) and those from the right side (used as a test oligopeptide). Thereafter, 5 skin sections were placed on a single nuclepore membrane (pore size: 8 μm; diameter: 13 mm). The skin sections were observed under a stereoscopic microscope, and the outside thereof was disposed on the front. 500 μl of Dulbecco's MEM/Ham F12 medium containing 1% BSA was added to 2 wells of a 24-well dish. Thereafter, a test oligopeptide solution (solvent: PBS) was added to one well to a final concentration of 20 μM, and only a solvent (PBS) as a control was added at the same amount to the other well. As test oligopeptides, unmodified oligopeptides and modified oligopeptides produced in (1) above were used.
Each of the membranes on which the skin tissues were placed was put on the aforementioned solution filled in the well, and it was then cultured at 37° C. for 6 days. From each membrane, 5 tissue sections were recovered in 100 μl of an SDS sample buffer (0.02 g/ml SDS, 0.2 g/ml glycerol, pH 6.8). The recovered sections were then dissolved therein using an ultrasonic crusher. The control was treated in the same manner. The solution obtained by the aforementioned treatment was electrophoresed (35 mA, 1.5 hours) by SDS-PAGE (acrylamide: 4% to 20%), and it was then transferred to a PVDF membrane. Thereafter, it was incubated in a Tris buffer solution (TBST) containing 5% skimmed milk for 1 hour. Thereafter, the resultant was allowed to react with mAb27 (10 μg/ml in TBST) obtained in Example 2 for 1 hour, and it was then sufficiently washed with TBS. Thereafter, peroxidase-labeled anti-rat IgG (Amersham) was 1,000 times diluted with TBST, and the diluted solution was used as a secondary antibody. The secondary antibody was allowed to react with the above resultant product, and the obtained reaction product was then sufficiently washed. Thereafter, the strength of the reaction of mAb27 was examined using an ECL kit (Amersham).
The term “AHF” shown in FIGS. 4 and 5 represents an antigen recognized by the monoclonal antibody mAb27 (specifically, a protein consisting of 1,439 amino acid residues shown in SEQ ID NO: 11).

Substance | hair growth activity (thickness of AHF band detected with mAb27)
Ser-Ile-Glu-Gln-Ser-Xaa-Ala-Gln-Glu (SIEQSC(Hexanoyl(6-maleimido))AQE) [SEQ ID NO: 9] | particularly strong hair growth activity
Ser-Ile-Glu-Gln-Ser-Xaa-Asp [BMPA] (SIEQSC(BMPA)D) | strong hair growth activity
Ser-Ile-Glu-Gln-Ser-Xaa-Asp [EMCA] (SIEQSC(Hexanoyl(6-maleimido))D) | strong hair growth activity; also recorded: particularly strong
Ser-Ile-Glu-Gln-Ser-Xaa-Asp [KMUA] (SIEQSC(KMUA)D) | strong hair growth activity
Ser-Ile-Glu-Gln-Ser-Xaa-Asp-Gln-Asp-Glu (SIEQSC(Hexanoyl(6-maleimido))DQDE) [SEQ ID NO: 8] | particularly strong hair growth activity
Ser-Ile-Glu-Gln-Ser-Xaa-Glu-Gln-Glu (SIEQSC(Hexanoyl(6-maleimido))EQE) [SEQ ID NO: 10] | strong hair growth activity
